In patent publication US9566262B2, “Itch suppression by fucoxanthin” (THE RITSUMEIKAN TRUST, priority 2015, dated 2017):

Legend:
[1] = tested on: bone marrow-derived mast cells (BMMCs); test: Granule formation in BMMCs, tryptase immunostaining; assay type: cell-based, mice; settings: 10 μM, vs control-treated cells
Protocol: Mature mast cells were prepared in the same manner as described in Example 5. The BMMCs obtained were mounted on a glass slide and heat-fixed. The analysis of the preparation was performed according to the method described in Kosaka, T., Fukui, R., Matsui, M. et al. (2014) “RAGE, Receptor of Advanced Glycation Endoproducts, Negatively Regulates Chondrocytes Differentiation.” PLoS ONE 9(10): e108819. Briefly, the cells were reacted with a mouse anti-mast cell tryptase antibody (AB2378, Abcam, Tokyo, Japan) and then reacted with an FITC-conjugated anti-mouse IgG (Santa Cruz Biotechnology, Inc.) and 1 μg/mL DAPI (4′,6-diamino-2-phenylindole dihydrochloride). The fluorescent image was analyzed by EVOS® FL Cell Imaging System (Life Technologies Corp).
To confirm where the effect of fucoxanthin on granule formation in mast cells is specific rather than common to carotenoids, we compared granule formation between fucoxanthin-treated and astaxanthin-treated BMMCs by immunostaining of tryptase. The immunostaining assay was performed in the same manner as described in Example 6.

[2] = tested on: GATA-luc; test: Luciferase reporter assay in HEK293 cells; assay type: cell-based; settings: HEK293, treated 3 hours after transfection for 48 hours, vs DMSO (fucoxanthin 0.1, 1, 10 μM)
From the text: The plasmids pGL3-Cebpα promoter-luc and pGL3-Mitf1 promoter-luc were provided by Dr. Hua Huang (University of Colorado school, Denver, USA). The plasmid NF-κB-luc was purchased from Agilent Technologies (Santa Clara, Calif.). The GATA-responsive reporter vector was provided by Dr. Ishijima (Takasaki University of Health and welfare, Gunma, Japan). Three GATA motifs from mouse α-1 globulin gene (5′-TGATAA-3′) were tandemly inserted into Sma I site of pRBGP3. HDC promoter was provided by Dr. Ootsu (Tohoku University school of Medicine, Sendai, Japan) and cloned into Kpn I-Hind III site of pGL4.10 (Hdc promoter-luc). The reporter assay was performed according to the method described in Kanatani, N. et al. Briefly, HEK293 cells were transfected with each of the luciferase constructs (0.2 μg) or pRL-CMV (Promega, Madison, Wis.) (0.001 μg). At 3 hours after transfection, the cells were treated with fucoxanthin (0.1 μM, 1 μM or 10 μM) or DMSO for 48 hours and reporter assay was performed using Dual-Luciferase® Reporter Assay System (Promega). Luciferase activity was measured using luminometer model TD20/20n (Turner BioSystems, Sunnyvale, Calif.) and normalized to Renilla luciferase activity expressed by CMV promoter.
GATA-reporter assay was performed using HEK293 cells expressing GATA-luc prepared in Example 8, in the same manner as described in Example 8 except using various carotenoids (fucoxanthin, astaxanthin, lycopene, β-carotene or retinoic acid) in place of fucoxanthin.

[3] = tested on: NC/Nga mice; test: Clinical symptoms of dermatitis in PiCl-sensitized NC/Nga mice; assay type: in vivo; settings: topical application plus PiCl, at 5 weeks
Protocol: Next, we examined the effects of fucoxanthin and astaxanthin on clinical symptoms of dermatitis in NC/Nga mice. In the same manner as described in Example 2, fucoxanthin or astaxanthin and PiCl were applied to NC/Nga mice. […] In the same manner as described in Example 2, Vaseline, fucoxanthin or tacrolimus and PiCl were applied to NC/Nga mice. […] Also, serum IgE levels and swelling of the auricular lymph nodes of the mice were determined in the same manner as described in Example 2.

[4] = tested on: NC/Nga mice; test: Serum IgE content by ELISA in NC/Nga mice; assay type: in vivo; settings: topical application for 5 weeks, PiCl-sensitized, vs Vaseline
From the text: (§1) NC/Nga mice (5 weeks old, female) were purchased from Japan SLC, Inc. […] On day 12, day 19, day 26 and day 33 after starting application of Vaseline or fucoxanthin, 0.8% picryl chloride (PiCl) was further applied to the back skin of the mice. The behaviors of the mice were observed by video monitoring. On day 34 after starting application of Vaseline or fucoxanthin, bromodeoxyuridine (BrdU, Nacalai Tesque) (0.[…] weight) was intraperitoneally administered to the mice. At 5 weeks after starting application of Vaseline or fucoxanthin, the time each mouse spent for scratching behavior in 10 minutes was measured by video monitoring. Then, the mice were sacrificed and the auricular lymph node, blood and skin were obtained. Serum IgE content was determined by enzyme-linked immunosorbent assay (ELISA) using Mouse IgE Assay Kit (Morinaga Institute of Biological Science, Inc.). […] BrdU uptake was determined by ELISA using Cell Proliferation ELISA, BrdU (Colorimetric) (Roche Diagnostics K.K.). […] Also, serum IgE levels and swelling of the auricular lymph nodes of the mice were determined in the same manner as described in Example 2.

[5] = tested on: NC/Nga mice; test: Swelling (length) of the auricular lymph node in NC/Nga mice; assay type: in vivo; settings: topical application for 5 weeks, PiCl-sensitized, vs Vaseline
From the text: as §1

[6] = tested on: NC/Nga mice; test: Transdermal water loss (TEWL) in the skin of NC/Nga mice; assay type: in vivo; settings: topical application plus PiCl, at 5 weeks, vs Vaseline
Protocol: Transdermal water loss (TEWL) in the skin of the mice treated with fucoxanthin was also measured and compared with that in the skin of the mice treated with tacrolimus.

**Q.** Which “granule formation (tryptase-positive cells / immunoreactivity against tryptase)” value [1] does the source give for `CC1=C(/C=C/C(C)=C/C=C/C(C)=C/C=C/C=C(C)/C=C/C=C(C)/C=C/C2=C(C)C(=O)[C@@H](O)CC2(C)C)C(C)(C)C[C@H](O)C1=O` [astaxanthin, reference compound] here?
**A.** not significantly reduced

**Q.** And the GATA-luc expression [2]?
**A.** not downregulated

**Q.** `CC(C)=CCC/C(C)=C/C=C/C(C)=C/C=C/C(C)=C/C=C/C=C(C)/C=C/C=C(C)/C=C/C=C(\C)CCC=C(C)C` [lycopene] was tested. Which GATA-luc expression [2] did it give?
**A.** not downregulated

**Q.** `C=CC[C@@H]1/C=C(\C)C[C@H](C)C[C@H](OC)[C@H]2O[C@@](O)(C(=O)C(=O)N3CCCC[C@H]3C(=O)O[C@H](/C(C)=C/[C@@H]3CC[C@@H](O)[C@H](OC)C3)[C@H](C)[C@@H](O)CC1=O)[C@H](C)C[C@@H]2OC` [tacrolimus, reference compound] was tested. Which “clinical symptoms of dermatitis (AD symptoms)” value [3] did it give?
**A.** protected AD symptoms partially

**Q.** And the “serum IgE level” value [4]?
**A.** neither ear swelling (FIG. 9A) nor serum IgE level (FIG. 9B) were affected

**Q.** And the “swelling of the auricular lymph node (ear swelling)” value [5]?
**A.** neither ear swelling (FIG. 9A) nor serum IgE level (FIG. 9B) were affected

**Q.** What about the “transdermal water loss (TEWL)” value [6] of the same molecule?
**A.** did not affect TEWL

**Q.** `CC1=C(/C=C/C(C)=C/C=C/C(C)=C/C=C/C=C(C)/C=C/C=C(C)/C=C/C2=C(C)CCCC2(C)C)C(C)(C)CCC1` [β-carotene] was tested. Which GATA-luc expression [2] did it give?
**A.** rather upregulated
